Experimental data from patent US20180326055A1, “NANOSTRUCTURE” (RIKEN, priority 2017, published 2018).

Tested on: HeLa cell
Assay: Delivery of PI by nanocapsule into cells (fluorescent microscope)
Type: cell-based
Settings: incubated 1 hour
Method: PI-encapsulating nanocapsule was prepared in the same manner as described in Example 2. The PI-encapsulating nanocapsule dispersion was incubated with HeLa cell for 1 hour and washed with a buffer solution several times to remove the nanocapsule and free PI outside completely. The location of PI was evaluated by fluorescent microscope observation. PI alone incubated with HeLa cell for 1 hour was used as a negative control.

## CC[N+](C)(CC)CCC[n+]1c(-c2ccccc2)c2cc(N)ccc2c2ccc(N)cc21.[I-].[I-] [PI, propidium iodide]
  uptake of PI by cells: not taken up by cells
